The source of these data is patent US9486506B2 (Novo Nordisk A/S, priority 2011, dated 2016).

Structures are written as SMILES.

The nature of data set [1]: Assay (X) Chemical stability assessment by RP-UPLC. Format: physicochemical. To be noted: pH 8.15, 14 days at 37° C. vs 5° C., 333 μM.
In another data set the target is T1, glucagon receptor (Homo sapiens, UniProt P47871).
T1 construct: expressed in transfected cells
The data set can be described thus: Assay (I) Glucagon activity (cAMP biosensor, FLIPR). Format: cell-based.

T1 sequence (P47871 26-477): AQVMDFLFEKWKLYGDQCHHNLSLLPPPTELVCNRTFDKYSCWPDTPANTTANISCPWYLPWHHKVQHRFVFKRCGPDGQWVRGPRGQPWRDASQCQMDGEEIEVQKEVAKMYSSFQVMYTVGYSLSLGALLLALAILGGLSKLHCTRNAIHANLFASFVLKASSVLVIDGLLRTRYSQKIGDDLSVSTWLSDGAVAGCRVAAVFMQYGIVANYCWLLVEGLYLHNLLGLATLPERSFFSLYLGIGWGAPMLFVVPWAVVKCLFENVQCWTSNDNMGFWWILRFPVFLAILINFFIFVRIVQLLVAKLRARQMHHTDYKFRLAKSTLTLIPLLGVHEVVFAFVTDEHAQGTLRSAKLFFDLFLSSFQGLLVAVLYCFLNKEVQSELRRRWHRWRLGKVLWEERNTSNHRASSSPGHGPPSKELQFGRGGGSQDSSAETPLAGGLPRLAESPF

The EC50 is the concentration needed to bring the measured effect to its halfway point. Low readings indicate a more potent agent, high ones a less potent agent. For `CC(C)C[C@H](NC(=O)[C@H](Cc1c[nH]c2ccccc12)NC(=O)[C@H](CCCCNC(=O)CC[C@H](NC(=O)CC[C@H](NC(=O)CC[C@H](NC(=O)CC[C@H](NC(=O)CCCCCCCCCCCCCCCCC(=O)O)C(=O)O)C(=O)O)C(=O)O)C(=O)O)NC(=O)[C@@H](NC(=O)[C@H](Cc1ccccc1)NC(=O)[C@H](CC(=O)O)NC(=O)[C@H](CCC(N)=O)NC(=O)[C@H](C)NC(=O)[C@H](CCCNC(=N)N)NC(=O)[C@H](CCCNC(=N)N)NC(=O)[C@@H](NC(=O)[C@H](CC(=O)O)NC(=O)[C@H](CC(C)C)NC(=O)[C@H](Cc1ccc(O)cc1)NC(=O)[C@H](CCCCN)NC(=O)[C@H](CO)NC(=O)[C@H](Cc1ccc(O)cc1)NC(=O)[C@H](CC(=O)O)NC(=O)[C@H](CO)NC(=O)[C@@H](NC(=O)[C@H](Cc1ccccc1)NC(=O)[C@@H](NC(=O)CNC(=O)[C@H](CCC(N)=O)NC(=O)[C@H](CO)NC(=O)[C@@H](N)Cc1c[nH]cn1)[C@@H](C)O)[C@@H](C)O)C(C)C)C(C)C)C(=O)N[C@@H](CC(C)C)C(=O)N[C@@H](CO)C(=O)N[C@H](C(N)=O)[C@@H](C)O` [Example 76, N^ε24-[(4S)-4-carboxy-4-[[(4S)-4-carboxy-4-[[(4S)-4-carboxy-4-[[(4S)-4-carboxy-4-(17-carboxyheptadecanoylamino)butanoyl]amino]butanoyl]amino]butanoyl]amino]butanoyl]-[Val16,Lys24,Leu27,Ser28]-Glucagon amide], the “Chemical stability [Purity loss/14 days 37 C.]” value in data set [1] worked out at 5.5%. At glucagon receptor, this compound had a concentration for a half-maximal effect (EC50) of 0.268 nM.

As for `CC(C)C[C@H](NC(=O)[C@H](CC(=O)O)NC(=O)[C@H](CC(C)C)NC(=O)[C@H](Cc1ccc(O)cc1)NC(=O)[C@H](CCCCN)NC(=O)[C@H](CO)NC(=O)[C@H](Cc1ccc(O)cc1)NC(=O)[C@H](CC(=O)O)NC(=O)[C@H](CO)NC(=O)[C@@H](NC(=O)[C@H](Cc1ccccc1)NC(=O)[C@@H](NC(=O)CNC(=O)[C@H](CCC(N)=O)NC(=O)[C@H](CO)NC(=O)[C@@H](N)Cc1c[nH]cn1)[C@@H](C)O)[C@@H](C)O)C(=O)N[C@@H](CCCNC(=N)N)C(=O)N[C@@H](CCCNC(=N)N)C(=O)N[C@@H](C)C(=O)N[C@@H](CCC(N)=O)C(=O)N[C@@H](CC(=O)O)C(=O)N[C@@H](Cc1ccccc1)C(=O)N[C@H](C(=O)N[C@@H](CCCCNC(=O)CC[C@H](NC(=O)CC[C@H](NC(=O)CC[C@H](NC(=O)CC[C@H](NC(=O)CCCCCCCCCCCCCCCCC(=O)O)C(=O)O)C(=O)O)C(=O)O)C(=O)O)C(=O)N[C@@H](Cc1c[nH]c2ccccc12)C(=O)N[C@@H](CC(C)C)C(=O)N[C@@H](CC(C)C)C(=O)N[C@@H](CO)C(=O)N[C@H](C(N)=O)[C@@H](C)O)C(C)C` [Example 77, N^ε24-[(4S)-4-carboxy-4-[[(4S)-4-carboxy-4-[[(4S)-4-carboxy-4-[[(4S)-4-carboxy-4-(17-carboxyheptadecanoylamino)butanoyl]amino]butanoyl]amino]butanoyl]amino]butanoyl]-[Leu16,Lys24,Leu27,Ser28]-Glucagon amide], the “Chemical stability [Purity loss/14 days 37 C.]” value in data set [1] was determined as 4.1%. Further, on glucagon receptor, the 50% effective concentration (EC50) stood at 0.812 nM.

For the compound `CC(C)C[C@H](NC(=O)[C@H](Cc1c[nH]c2ccccc12)NC(=O)[C@H](CCCCNC(=O)CC[C@H](NC(=O)CC[C@H](NC(=O)CC[C@H](NC(=O)CC[C@H](NC(=O)CCCCCCCCCCCCCCCCC(=O)O)C(=O)O)C(=O)O)C(=O)O)C(=O)O)NC(=O)[C@@H](NC(=O)[C@H](Cc1ccccc1)NC(=O)[C@H](CC(=O)O)NC(=O)[C@H](CCC(N)=O)NC(=O)[C@H](C)NC(=O)[C@H](CCCNC(=N)N)NC(=O)[C@H](CCCNC(=N)N)NC(=O)[C@@H](NC(=O)[C@H](CC(=O)O)NC(=O)[C@H](CC(C)C)NC(=O)[C@H](Cc1ccc(O)cc1)NC(=O)[C@H](CCCCN)NC(=O)[C@H](CO)NC(=O)[C@H](Cc1ccc(O)cc1)NC(=O)[C@H](CC(=O)O)NC(=O)[C@H](CO)NC(=O)[C@@H](NC(=O)[C@H](Cc1ccccc1)NC(=O)[C@@H](NC(=O)CNC(=O)[C@H](CCC(N)=O)NC(=O)[C@H](CO)NC(=O)[C@@H](N)Cc1c[nH]cn1)[C@@H](C)O)[C@@H](C)O)C(C)C)C(C)C)C(=O)N[C@@H](CC(C)C)C(=O)N[C@@H](CO)C(=O)N[C@H](C(=O)O)[C@@H](C)O` [Example 78, N^ε24-[(4S)-4-carboxy-4-[[(4S)-4-carboxy-4-[[(4S)-4-carboxy-4-[[(4S)-4-carboxy-4-(17-carboxyheptadecanoylamino)butanoyl]amino]butanoyl]amino]butanoyl]amino]butanoyl]-[Val16,Lys24,Leu27,Ser28]-Glucagon], the “Chemical stability [Purity loss/14 days 37 C.]” value in data set [1] was determined as 4.3%. The compound further yielded a half-maximal effective concentration (EC50) at glucagon receptor of 0.134 nM.

Regarding `CC[C@H](C)[C@H](NC(=O)[C@H](CC(=O)O)NC(=O)[C@H](CC(C)C)NC(=O)[C@H](Cc1ccc(O)cc1)NC(=O)[C@H](CCCCN)NC(=O)[C@H](CO)NC(=O)[C@H](Cc1ccc(O)cc1)NC(=O)[C@H](CC(=O)O)NC(=O)[C@H](CO)NC(=O)[C@@H](NC(=O)[C@H](Cc1ccccc1)NC(=O)[C@@H](NC(=O)CNC(=O)[C@H](CCC(N)=O)NC(=O)[C@H](CO)NC(=O)[C@@H](N)Cc1c[nH]cn1)[C@@H](C)O)[C@@H](C)O)C(=O)N[C@@H](CCCNC(=N)N)C(=O)N[C@@H](CCCNC(=N)N)C(=O)N[C@@H](C)C(=O)N[C@@H](CCC(N)=O)C(=O)N[C@@H](CC(=O)O)C(=O)N[C@@H](Cc1ccccc1)C(=O)N[C@H](C(=O)N[C@@H](CCCCNC(=O)CC[C@H](NC(=O)CC[C@H](NC(=O)CC[C@H](NC(=O)CC[C@H](NC(=O)CCCCCCCCCCCCCCCCC(=O)O)C(=O)O)C(=O)O)C(=O)O)C(=O)O)C(=O)N[C@@H](Cc1c[nH]c2ccccc12)C(=O)N[C@@H](CC(C)C)C(=O)N[C@@H](CC(C)C)C(=O)N[C@@H](CO)C(=O)N[C@H](C(=O)O)[C@@H](C)O)C(C)C` [Example 79, N^ε24-[(4S)-4-carboxy-4-[[(4S)-4-carboxy-4-[[(4S)-4-carboxy-4-[[(4S)-4-carboxy-4-(17-carboxyheptadecanoylamino)butanoyl]amino]butanoyl]amino]butanoyl]amino]butanoyl]-[Ile16,Lys24,Leu27,Ser28]-Glucagon], the “Chemical stability [Purity loss/14 days 37 C.]” value in data set [1] is on record as 3.8%. On glucagon receptor, this compound registered a concentration giving a half-maximal response (EC50) of 0.189 nM.

On to `CC(C)C[C@H](NC(=O)[C@H](Cc1ccc(O)cc1)NC(=O)[C@H](CCCCN)NC(=O)[C@H](CO)NC(=O)[C@H](Cc1ccc(O)cc1)NC(=O)[C@H](CC(=O)O)NC(=O)[C@H](CO)NC(=O)[C@@H](NC(=O)[C@H](Cc1ccccc1)NC(=O)[C@@H](NC(=O)CNC(=O)[C@H](CCC(N)=O)NC(=O)[C@H](CO)NC(=O)[C@@H](N)Cc1c[nH]cn1)[C@@H](C)O)[C@@H](C)O)C(=O)N[C@@H](CC(=O)O)C(=O)N[C@@H](C)C(=O)N[C@@H](CCCNC(=N)N)C(=O)N[C@@H](CCCNC(=N)N)C(=O)N[C@@H](C)C(=O)N[C@@H](CCC(N)=O)C(=O)N[C@@H](CC(=O)O)C(=O)N[C@@H](Cc1ccccc1)C(=O)N[C@H](C(=O)N[C@@H](CCCCNC(=O)CC[C@H](NC(=O)CC[C@H](NC(=O)COCCOCCNC(=O)COCCOCCNC(=O)CC[C@H](NC(=O)CCCCCCCCCCCCCCC(=O)O)C(=O)O)C(=O)O)C(=O)O)C(=O)N[C@@H](Cc1c[nH]c2ccccc12)C(=O)N[C@@H](CC(C)C)C(=O)N[C@@H](CC(C)C)C(=O)N[C@@H](CO)C(=O)N[C@H](C(=O)O)[C@@H](C)O)C(C)C` [Example 83, N^ε24-[(4S)-4-carboxy-4-[[(4S)-4-carboxy-4-[[2-[2-[2-[[2-[2-[2-[[(4S)-4-carboxy-4-(15-carboxypentadecanoylamino)butanoyl]amino]ethoxy]ethoxy]acetyl]amino]ethoxy]ethoxy]acetyl]amino]butanoyl]amino]butanoyl]-[Ala16,Lys24,Leu27,Ser28]-Glucagon], for which the “Chemical stability [Purity loss/14 days 37 C.]” value in data set [1] was 10.3%. This compound also registered a concentration for a half-maximal effect (EC50) on glucagon receptor of 0.016 nM.
